For this assay, the target named is T1, interaction of Gal3 and Abeta (1-42) oligomer (Homo sapiens, UniProt P17931).
T1 construct: His
As to the kind of experiment: Gal3-Abeta (1-42) oligomer blocking ELISA. The assay is classed as binding. To be noted: at 10,000 nM.

T1 sequence (P17931 2-250 limits assumed): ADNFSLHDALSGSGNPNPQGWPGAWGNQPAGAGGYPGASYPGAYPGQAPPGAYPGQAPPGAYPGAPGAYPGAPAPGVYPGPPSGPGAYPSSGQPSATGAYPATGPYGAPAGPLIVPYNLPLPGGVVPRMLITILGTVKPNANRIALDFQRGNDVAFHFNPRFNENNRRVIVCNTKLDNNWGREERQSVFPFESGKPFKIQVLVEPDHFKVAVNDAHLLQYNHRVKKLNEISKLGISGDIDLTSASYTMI
Protocol: To identify Gal3-targeted antibodies with the ability to block the interaction of Gal3 and Abeta, purified Gal3 and Abeta (1-42) peptide and oligomer were incubated in the presence (or absence) of various Gal3-targeted or control antibodies, or without antibody, and protein interaction was evaluated by ELISA.
The plate was incubated for an hour at room temperature with gentle rocking. Thereafter, the plate was washed three times with PBST. […] The plate was incubated at room temperature for an hour with gentle rocking and then washed three times with PBST. […] Percent blockade of Gal3-Abeta (1-42) peptide or oligomer interaction was calculated as the fraction of signal obtained in the absence of antibody with the background signal subtracted.
The plate was incubated for an hour at room temperature with gentle rocking. Thereafter, the plate was washed three times with PBST. […] The plate was incubated at room temperature for an hour with gentle rocking and then washed three times with PBST. […] Percent blockade of Gal3-Abeta (1-42) oligomer interaction was calculated as the fraction of signal obtained in the absence of antibody or inhibitor with the background signal subtracted.

As for `OC[C@H]1O[C@@H](S[C@@H]2O[C@H](CO)[C@H](O)[C@H](n3cc(-c4cccc(F)c4)nn3)[C@H]2O)[C@H](O)[C@@H](n2cc(-c3cccc(F)c3)nn2)[C@H]1O` [TD139], the “Percent blockade of Gal3-Abeta (1-42) oligomer interaction” value is reported as “at most 19%”.

For the origin of these results see US20250145722A1, “ANTI-GAL3 ANTIBODIES AND METHODS OF USE” (TrueBinding, Inc., priority 2020, published 2025).
